Numbers after ± are expanded uncertainties.
Details: 298.15 K; 101.33 kPa; Liquid; Vibrating tube method

Q: With `CCCCn1cc[n+](C)c1.F[B-](F)(F)F` [1-butyl-3-methylimidazolium tetrafluoroborate] as the compound, how does the mass density read?
A: 1203.76 ± 7.9 kg/m3

Q: With `CCOS(=O)(=O)[O-].CCn1cc[n+](C)c1` [1-ethyl-3-methylimidazolium ethyl sulfate] as the compound, how does the mass density read?
A: 1236.55 ± 8.3 kg/m3
